# From US8759333B2, “Di-azetidinyl diamide as monoacylglycerol lipase inhibitors” (Janssen Pharmaceutica, NV, priority 2010, dated 2014)
# Positions count from the first letter of the chain named.
# What was measured:
# [1] = target: T1, mutant MGL (mut-MGLL 11-313 L179S L186S) (Homo sapiens, UniProt Q99685, L169S/L176S); assay: MGL Enzyme Activity Assay, purified mutant MGL, 4MU-B substrate; format: biochemical; details: mutant MGL 5 nM, 4MU-B 10 μM, 37° C.; read-out: MGL mutant inh IC50
# T1 construct: purified mutant MGL (mut-MGLL 11-313 L179S L186S)
# T1 sequence (Q99685 1-303 L169S/L176S): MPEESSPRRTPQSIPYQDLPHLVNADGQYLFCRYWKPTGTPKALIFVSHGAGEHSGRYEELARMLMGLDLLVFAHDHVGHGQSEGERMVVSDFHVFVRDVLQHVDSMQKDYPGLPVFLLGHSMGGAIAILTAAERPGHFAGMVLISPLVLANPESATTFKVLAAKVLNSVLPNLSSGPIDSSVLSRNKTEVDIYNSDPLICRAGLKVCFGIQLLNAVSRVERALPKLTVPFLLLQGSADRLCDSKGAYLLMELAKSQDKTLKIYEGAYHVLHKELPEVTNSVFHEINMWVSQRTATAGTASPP
# In short: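 Purified mutant MGL (5 nM final) with 10 μM 4MU-B in 20 mM PIPES pH 7.0, 150 mM NaCl, 0.001% Tween 20; compounds 17 to 0.0003 μM final. Fluorescence (ex 335/em 440 nm) followed 5 min at 37 °C; IC50 from fit of fractional activity versus inhibitor concentration.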
# [2] = target: T2, wild type MGL (wt-MGLL 6H-11-313) (Homo sapiens, UniProt Q99685); assay: MGL Enzyme Activity Assay, purified wild type MGL, 4MU-B substrate; format: biochemical; details: wild type MGL 5 nM, 4MU-B 10 μM, 37° C.; read-out: MGL wild type inh IC50
# T2 construct: purified wild type MGL (wt-MGLL 6H-11-313); 6H (hexahistidine) (N)
# T2 sequence (Q99685 1-303): T1 sequence (Q99685 1-303 L169S/L176S) with S169L, S176L
# Description: All rate-based assays were performed in black 384-well polypropylene PCR microplates (Abgene) in a total volume of 30 μL. […] Final compound concentrations ranged from 17 to 0.0003 μM.
# The IC50 values for the following compounds were determined using Microsoft Office Excel from a fit of the equation to the concentration-response plot of the fractional activity as a function of inhibitor concentration.
# MGL = target: T3, MGL (Rattus norvegicus, UniProt Q8R431); assay: 2-AG Accumulation Assay in rat brain homogenate; format: biochemical; details: percent of vehicle; for activity at 10 µM: compound @10 µM, read-out: Rat Brain 2AG % VehCntrl (%) @10 µM; for activity at 1 µM: compound @1 µM, read-out: Rat Brain 2AG % VehCntrl (%) @1 µM
# T3 construct: one g rat brain was homogenized using a Polytron homogenizer; from tissue; host or cells: rat brain homogenate
# T3 sequence (Q8R431 1-303): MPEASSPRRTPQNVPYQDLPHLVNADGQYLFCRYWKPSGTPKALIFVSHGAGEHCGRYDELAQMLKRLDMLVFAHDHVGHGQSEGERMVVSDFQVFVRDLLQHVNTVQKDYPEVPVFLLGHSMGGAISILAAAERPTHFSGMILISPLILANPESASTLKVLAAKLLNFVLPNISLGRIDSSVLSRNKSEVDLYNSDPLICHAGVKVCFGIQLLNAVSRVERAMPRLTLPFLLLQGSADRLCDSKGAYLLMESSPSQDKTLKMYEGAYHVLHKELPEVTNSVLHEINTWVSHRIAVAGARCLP
# mutant MGL = target: T4, mutant MGL (Homo sapiens, UniProt Q99685, L169S/L176S); assay: MGL ThermoFluor Assay - Mutant; format: binding; details: 0.07 mg/ml mutant MGL, 100 μM ANS, pH 7.0
# T4 construct: purified mutant MGL (mut-MGLL 11-313 L179S L186S)
# T4 sequence (Q99685 1-303 L169S/L176S): T1 sequence (Q99685 1-303 L169S/L176S)
# Description: The ThermoFluor (TF) assay is a 384-well plate-based binding assay that measures thermal stability of proteins^1,2. The experiments were carried out using instruments available from Johnson & Johnson Pharmaceutical Research & Development, LLC. TF dye used in all experiments was 1,8-ANS (Invitrogen: A-47). Final TF assay conditions used for MGL studies were 0.07 mg/ml of mutant MGL, 100 μM ANS, 200 mM NaCl, 0.001% Tween-20 in 50 mM PIPES (pH=7.0).
# Screening compound plates contained 100% DMSO compound solutions at a single concentration. […] Columns 12 and 24 were used as DMSO reference and contained no compound. […] Following compound dispension, protein and dye solutions were added to achieve the final assay volume of 3 μL.
# Bar-coded assay plates were robotically loaded onto a thermostatically controlled PCR-type thermal block and then heated from 40 to 90° C. degrees at a ramp-rate of 1° C./min for all experiments. Fluorescence was measured by continuous illumination with UV light (Hamamatsu LC6), supplied via fiber optics and filtered through a band-pass filter (380-400 nm; >60D cutoff). Fluorescence emission of the entire 384-well plate was detected by measuring light intensity using a CCD camera (Sensys, Roper Scientific) filtered to detect 500±25 nm, resulting in simultaneous and independent readings of all 384 wells. A single image with 20-sec exposure time was collected at each temperature, and the sum of the pixel intensity in a given area of the assay plate was recorded vs temperature and fit to standard equations to yield the Tm^1. • 1.
# The Kd values for certain compounds of Formula (I) were determined from a fit of the equation to the concentration-response plot of the fractional activity as a function of […]. For some experiments, quantitative NMR spectroscopy (qNMR) was used to measure concentration of the initial 100% DMSO compound solutions and, using the same fitting method, qKd values were determined.
SMILES,IC50 [1] [nM],IC50 [2] [nM],activity at 10 µM (MGL) [%],Kd (mutant MGL) [nM],activity at 1 µM (MGL) [%]
"O=C(c1ccc2c(-c3ccccc3)cccc2c1)N1CC(N2CC(N3Cc4ccccc4C3=O)C2)C1 [Cpd 97, 2-{1′-[(5-Phenylnaphthalen-2-yl)carbonyl]-1,3′-biazetidin-3-yl}-2,3-dihydro-1H-isoindol-1-one]",< 5,< 5,518,–,–
"Cc1cc(-c2cccc(C(F)(F)F)c2)ccc1C(=O)N1CC(N2CC(N3Cc4scnc4C3=O)C2)C1 [Cpd 104, 5-(1′-{[3-Methyl-3′-(trifluoromethyl)biphenyl-4-yl]carbonyl}-1,3′-biazetidin-3-yl)-5,6-dihydro-4H-pyrrolo[3,4-d][1,3]thiazol-4-one]",–,66,–,215,–
"O=C(c1cc2ccc(-c3ccccc3)cc2s1)N1CC(N2CC(N3Cc4ccccc4C3=O)C2)C1 [Cpd 98, 2-{1′-[(6-Phenyl-1-benzothiophen-2-yl)carbonyl]-1,3′-biazetidin-3-yl}-2,3-dihydro-1H-isoindol-1-one]",< 5,< 5,613,–,–
"Cc1c(C(=O)N2CC(N3CC(N4Cc5scnc5C4=O)C3)C2)sc2cc(C(F)(F)F)ccc12 [Cpd 103, 5-(1′-{[3-Methyl-6-(trifluoromethyl)-1-benzothiophen-2-yl]carbonyl}-1,3′-biazetidin-3-yl)-5,6-dihydro-4H-pyrrolo[3,4-d][1,3]thiazol-4-one]",–,21,–,33,360
"O=C(NC1CN(C2CN(C(=O)c3ccc(-c4cccc(C(F)(F)F)c4)cc3F)C2)C1)c1nccs1 [Cpd 64, N-(1′-{[3-Fluoro-3′-(trifluoromethyl)biphenyl-4-yl]carbonyl}-1,3′-biazetidin-3-yl)-1,3-thiazole-2-carboxamide]",–,< 5,–,20,253
"Cc1cc(-c2ccc(C(F)(F)F)cc2)ccc1C(=O)N1CC(N2CC(N3Cc4scnc4C3=O)C2)C1 [Cpd 105, 5-(1′-{[3-Methyl-4′-(trifluoromethyl)biphenyl-4-yl]carbonyl}-1,3′-biazetidin-3-yl)-5,6-dihydro-4H-pyrrolo[3,4-d][1,3]thiazol-4-one]",–,887,–,3640,–
"CN(C(=O)c1cscn1)C1CN(C2CN(C(=O)c3cc4ccc(C(F)(F)F)cc4s3)C2)C1 [Cpd 48, N-Methyl-N-(1′-{[6-(trifluoromethyl)-1-benzothiophen-2-yl]carbonyl}-1,3′-biazetidin-3-yl)-1,3-thiazole-4-carboxamide]",8120,12900,–,> 31000,–
"O=C(NC1CN(C2CN(C(=O)c3ccc(Cc4ccccc4)cc3)C2)C1)c1nccs1 [Cpd 10, N-{1′-[(4-Benzylphenyl)carbonyl]-1,3′-biazetidin-3-yl}-1,3-thiazole-2-carboxamide]",15,70,659,–,–
"O=C(c1ccc2cc(-c3ccccc3)ccc2c1)N1CC(N2CC(N3Cc4ccccc4C3=O)C2)C1 [Cpd 69, 2-{1′-[(6-Phenylnaphthalen-2-yl)carbonyl]-1,3′-biazetidin-3-yl}-2,3-dihydro-1H-isoindol-1-one]",8,< 5,600,–,–
"O=C(NC1CN(C2CN(C(=O)c3ccc(Cc4ccc(C(F)(F)F)cc4)cc3)C2)C1)c1nccs1 [Cpd 16, N-[1′-({4-[4-(Trifluoromethyl)benzyl]phenyl}carbonyl)-1,3′-biazetidin-3-yl]-1,3-thiazole-2-carboxamide]",32,< 5,123,–,–
"Cc1cc(-c2cccc(C(F)(F)F)c2)ccc1C(=O)N1CC(N2CC(NC(=O)c3nccs3)C2)C1 [Cpd 58, N-(1′-{[3-Methyl-3′-(trifluoromethyl)biphenyl-4-yl]carbonyl}-1,3′-biazetidin-3-yl)-1,3-thiazole-2-carboxamide]",–,8,–,66.6,157
